Data published in article PMC12396409, “Screening and hit evaluation of a microbial metabolite library against the pathogenic Plasmodium falciparum and Toxoplasma gondii parasites” (International Journal for Parasitology: Drugs and Drug …, 2025).
Where two headings read alike, the source gives them in different places.

Legend:
[1] = test system: P. falciparum 3D7 parasites; assay: P. falciparum growth inhibition assay, 1-cycle (72 h treatment), SYBR DNA staining (library screen at 2 μg/mL and dose-response); type: cell-based, Plasmodium falciparum; details: for activity at 2 µg/mL: Plasmodium falciparum, 3D7
[2] = test system: P. falciparum 3D7 parasites; assay: P. falciparum growth inhibition assay, 2-cycle (120 h treatment), delayed-death screen and dose-response; type: cell-based, Plasmodium falciparum; details: for activity at 2 µg/mL: Plasmodium falciparum, 3D7
[3] = test system: T. gondii RH strain (RH-Tub-eYFP) tachyzoites; assay: microbe, parasite or virus in culture; type: cell-based, Toxoplasma gondii; details: 72 h; for percent parasite growth at 2 µg/mL: Toxoplasma gondii
[4] = P. falciparum, 72 h, screen at 2 μg/mL, replicate 1
[5] = P. falciparum, 72 h, screen at 2 μg/mL, replicate 2
[6] = P. falciparum, 120 h, screen at 2 μg/mL, replicate 1
[7] = P. falciparum, 120 h, screen at 2 μg/mL, replicate 2
[8] = T. gondii, screen at 2 μg/mL, replicate 1
[9] = T. gondii, screen at 2 μg/mL, replicate 2
[10] = P. falciparum 3D7, 72 h, library screen at 2 μg/mL, % growth, replicate 1
[11] = P. falciparum 3D7, 72 h, library screen at 2 μg/mL, % growth, replicate 2
[12] = P. falciparum 3D7, 120 h, library screen at 2 μg/mL, % growth, replicate 1
[13] = P. falciparum 3D7, 120 h, library screen at 2 μg/mL, % growth, replicate 2
[14] = T. gondii RH, library screen at 2 μg/mL, % growth, replicate 1
[15] = T. gondii RH, library screen at 2 μg/mL, % growth, replicate 2
[16] = P. falciparum 3D7, 72 h, parasite screen at 2 μg/mL, % growth, replicate 1
[17] = P. falciparum 3D7, 72 h, parasite screen at 2 μg/mL, % growth, replicate 2
[18] = P. falciparum 3D7, 120 h, parasite screen at 2 μg/mL, % growth, replicate 1
[19] = P. falciparum 3D7, 120 h, parasite screen at 2 μg/mL, % growth, replicate 2
[20] = T. gondii, parasite screen at 2 μg/mL, % growth, replicate 1
[21] = T. gondii, parasite screen at 2 μg/mL, % growth, replicate 2

CC[C@H](C)[C@H]1C(=O)O[C@H](C(C)C)C(=O)N(C)[C@@H](C(C)C)C(=O)O[C@H](C(C)C)C(=O)N(C)[C@@H](C(C)C)C(=O)O[C@H](C(C)C)C(=O)N1C [Enniatin B1]
activity at 2 µg/mL ([1]; library screen at 2 μg/mL, 72 h, % growth, replicate 1, read-out: Pf_72h_%Growth_Rep1): 4.56%
activity at 2 µg/mL ([1]; library screen at 2 μg/mL, 72 h, % growth, replicate 2, read-out: Pf_72h_%Growth_Rep2): 3.05%
activity at 2 µg/mL ([2]; library screen at 2 μg/mL, 120 h, % growth, replicate 1, read-out: Pf_120h_%Growth_Rep1): 5.98%
activity at 2 µg/mL ([2]; library screen at 2 μg/mL, 120 h, % growth, replicate 2, read-out: Pf_120h_%Growth_Rep2): 9.66%
percent parasite growth at 2 µg/mL ([3]; library screen at 2 μg/mL, % growth, replicate 1, read-out: Tg_72h_%Growth_Rep1): 0.26%
percent parasite growth at 2 µg/mL ([3]; library screen at 2 μg/mL, % growth, replicate 2, read-out: Tg_72h_%Growth_Rep2): 25.7%

Capreomycin sulfate
Pf_72h_%Growth_Rep1 [1, 4]: 82.18%
Pf_72h_%Growth_Rep2 [1, 5]: 86.69%
Pf_120h_%Growth_Rep1 [2, 6]: 94.57%
Pf_120h_%Growth_Rep2 [2, 7]: 87.91%
Tg_72h_%Growth_Rep1 [3, 8]: 114.86%
Tg_72h_%Growth_Rep2 [3, 9]: 91.40%

COc1cc([C@H]2[C@@]3(O)C[C@H]4C[C@]2(O)[C@](O)(C(=O)O4)[C@H]3C(=O)c2ccccc2)oc(=O)c1 [Deoxyenterocin]
Pf_72h_%Growth_Rep1 [1, 4]: 87.29%
Pf_72h_%Growth_Rep2 [1, 5]: 90.62%
Pf_120h_%Growth_Rep1 [2, 6]: 64.95%
Pf_120h_%Growth_Rep2 [2, 7]: 102.75%
Tg_72h_%Growth_Rep1 [3, 8]: 127.64%
Tg_72h_%Growth_Rep2 [3, 9]: 104.18%

CCC(C(=O)C(C)C(O)C(C)CCc1ccc(C)c(O)c1C(=O)O)C1OC(CC)(C2CCC(O)(CC)C(C)O2)CC1C (stereo not drawn) [BIA-L1533]
Pf_72h_%Growth_Rep1 [1, 10]: 6.55%
Pf_72h_%Growth_Rep2 [1, 11]: 4.89%
Pf_120h_%Growth_Rep1 [2, 12]: 6.55%
Pf_120h_%Growth_Rep2 [2, 13]: 19.46%
Tg_72h_%Growth_Rep1 [3, 14]: -0.84%
Tg_72h_%Growth_Rep2 [3, 15]: -0.33%

Amphomycin
Pf_72h_%Growth_Rep1 ([1]; library screen at 2 μg/mL, 72 h, % growth, replicate 1): 83.34%
Pf_72h_%Growth_Rep2 ([1]; library screen at 2 μg/mL, 72 h, % growth, replicate 2): 87.67%
Pf_120h_%Growth_Rep1 ([2]; library screen at 2 μg/mL, 120 h, % growth, replicate 1): 117.00%
Pf_120h_%Growth_Rep2 ([2]; library screen at 2 μg/mL, 120 h, % growth, replicate 2): 80.15%
Tg_72h_%Growth_Rep1 ([3]; library screen at 2 μg/mL, % growth, replicate 1): 94.79%
Tg_72h_%Growth_Rep2 ([3]; library screen at 2 μg/mL, % growth, replicate 2): 89.38%

CC1=C[C@H](O/C=C2/C(=O)O[C@@H]3c4ccccc4C[C@H]23)OC1=O [BIA-G1793]
Pf_72h_%Growth_Rep1 [1, 10]: 84.39%
Pf_72h_%Growth_Rep2 [1, 11]: 84.87%
Pf_120h_%Growth_Rep1 [2, 12]: 86.54%
Pf_120h_%Growth_Rep2 [2, 13]: 104.67%
Tg_72h_%Growth_Rep1 [3, 14]: 120.90%
Tg_72h_%Growth_Rep2 [3, 15]: 91.67%

Oc1cc(O)cc(O)c1 [BIA-P1379]
Pf_72h_%Growth_Rep1 [1, 16]: 72.55%
Pf_72h_%Growth_Rep2 [1, 17]: 29.88%
Pf_120h_%Growth_Rep1 [2, 18]: 15.44%
Pf_120h_%Growth_Rep2 [2, 19]: 11.00%
Tg_72h_%Growth_Rep1 [3, 20]: 123.57%
Tg_72h_%Growth_Rep2 [3, 21]: 91.75%

C=C1c2cccc(O)c2C(=O)C2=C(O)[C@]3(O)C(=O)C(C(N)=O)=C(O)[C@@H](N(C)C)[C@@H]3[C@@H](O)[C@H]12 [BIA-M1467]
Pf_72h_%Growth_Rep1 [1, 16]: 83.43%
Pf_72h_%Growth_Rep2 [1, 17]: 110.33%
Pf_120h_%Growth_Rep1 [2, 18]: 96.98%
Pf_120h_%Growth_Rep2 [2, 19]: 103.99%
Tg_72h_%Growth_Rep1 [3, 20]: 118.90%
Tg_72h_%Growth_Rep2 [3, 21]: 95.35%

CC(C)(O)[C@H]1O[C@H]2CC[C@@]3(C)[C@@](O)(CC[C@H]4Cc5c([nH]c6ccccc56)[C@@]43C)[C@]23O[C@@H]3[C@@H]1O [Terpendole I]
Pf_72h_%Growth_Rep1 [1, 4]: 66.72%
Pf_72h_%Growth_Rep2 [1, 5]: 80.63%
Pf_120h_%Growth_Rep1 [2, 6]: 141.22%
Pf_120h_%Growth_Rep2 [2, 7]: 87.55%
Tg_72h_%Growth_Rep1 [3, 8]: 89.20%
Tg_72h_%Growth_Rep2 [3, 9]: 95.24%

O=C1NCc2nc3ccccc3c(=O)n2-c2ccccc21 [Sclerotigenin]
activity at 2 µg/mL ([1]; P. falciparum, 72 h, parasite screen 2 μg/mL, % growth, replicate 1, read-out: Pf_72h_%Growth_Rep1): 90.7%
activity at 2 µg/mL ([1]; P. falciparum, 72 h, parasite screen 2 μg/mL, % growth, replicate 2, read-out: Pf_72h_%Growth_Rep2): 89.5%
activity at 2 µg/mL ([2]; P. falciparum, 120 h, parasite screen 2 μg/mL, % growth, replicate 1, read-out: Pf_120h_%Growth_Rep1): 169%
activity at 2 µg/mL ([2]; P. falciparum, 120 h, parasite screen 2 μg/mL, % growth, replicate 2, read-out: Pf_120h_%Growth_Rep2): 96.5%
percent parasite growth at 2 µg/mL ([3]; T. gondii, parasite screen 2 μg/mL, % growth, replicate 1, read-out: Tg_72h_%Growth_Rep1): 82%
percent parasite growth at 2 µg/mL ([3]; T. gondii, parasite screen 2 μg/mL, % growth, replicate 2, read-out: Tg_72h_%Growth_Rep2): 103%
